Starred links: 1 amine or outer side, 2 acyl side, 3 side chain; linkers in the order of their positions; H or OH if unused. Non-standard residues stand in square brackets, D forms with d. Residues, ends and D or L forms follow the SMILES beside them. Groups on a side chain read outwards from the residue. *: point of attachment. C20 diacid = O=C(O)CCCCCCCCCCCCCCCCCCC(=O)*; C18 diacid = O=C(O)CCCCCCCCCCCCCCCCC(=O)*; γGlu = O=C(O)[C@H](CCC(=O)[*:2])N[*:1]; αMeF = C[C@](N)(Cc1ccccc1)C(=O)O; PEG2 = NCCOCCOCCC(=O)O; AEEA = NCCOCCOCC(=O)O; Aib = CC(C)(N)C(=O)O
Tests used:
[1] = target: human glucagon receptor (hGCGR) (Homo sapiens, UniProt P47871); assay: cAMP production (HTRF) in CHO cells expressing hGCGR; type: cell-based; parameters: expressed in transfected cells; settings: hGluc-R EC50 (pM), cAMP, CHO cells, 0.1% BSA, geometric mean
In short: (§1)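 Cells were resuspended in assay buffer at batch-optimized density, typically 1×10^5 cells/mL for hGLP-1R and 2×10^5 cells/mL for hGCGR. After 30 min incubation at room temperature with compound, cAMP was measured by two-step HTRF. EC50 values came from 4-parameter logistic fits of % Delta F.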

[2] = target: human GLP-1 receptor (hGLP-1R) (Homo sapiens, UniProt P43220); assay: cAMP production (HTRF) in CHO cells expressing hGLP-1R; type: cell-based; parameters: expressed in transfected cells; settings: for % Relative Potency Ratio: % GLP-1R activity relative to GLP-1 / % GlucR activity relative to glucagon; for EC50: hGLP-1R EC50 (pM)
In short: as §1

Sequence of human glucagon receptor (hGCGR) (P47871 26-477): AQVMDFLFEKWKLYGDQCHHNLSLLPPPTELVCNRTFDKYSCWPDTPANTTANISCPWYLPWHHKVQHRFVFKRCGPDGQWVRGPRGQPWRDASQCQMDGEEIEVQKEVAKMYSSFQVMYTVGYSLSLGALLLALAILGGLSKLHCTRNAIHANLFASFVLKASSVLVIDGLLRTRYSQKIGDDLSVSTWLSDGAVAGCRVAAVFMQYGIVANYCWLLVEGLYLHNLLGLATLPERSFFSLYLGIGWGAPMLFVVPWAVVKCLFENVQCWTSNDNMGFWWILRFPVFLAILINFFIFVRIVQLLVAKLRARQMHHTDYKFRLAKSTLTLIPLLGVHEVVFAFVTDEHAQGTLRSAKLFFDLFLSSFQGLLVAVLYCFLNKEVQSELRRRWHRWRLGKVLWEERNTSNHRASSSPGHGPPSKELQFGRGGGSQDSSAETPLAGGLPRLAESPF
Sequence of human GLP-1 receptor (hGLP-1R) (P43220 24-463): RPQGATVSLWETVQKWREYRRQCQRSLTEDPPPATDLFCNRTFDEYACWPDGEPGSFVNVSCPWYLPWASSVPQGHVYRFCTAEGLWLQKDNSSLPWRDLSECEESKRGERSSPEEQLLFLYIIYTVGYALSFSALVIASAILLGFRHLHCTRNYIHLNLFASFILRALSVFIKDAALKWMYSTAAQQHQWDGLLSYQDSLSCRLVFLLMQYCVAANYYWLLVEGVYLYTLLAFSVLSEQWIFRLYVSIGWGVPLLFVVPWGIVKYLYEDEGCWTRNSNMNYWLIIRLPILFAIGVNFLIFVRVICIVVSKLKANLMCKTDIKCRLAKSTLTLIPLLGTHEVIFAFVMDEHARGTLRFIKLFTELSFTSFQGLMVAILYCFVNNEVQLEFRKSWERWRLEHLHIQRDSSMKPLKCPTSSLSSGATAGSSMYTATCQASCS

Row | Compound | EC50 [1] [pM] | % Relative Potency Ratio [2] | EC50 [2] [pM]
1 | CC[C@H](C)[C@H](NC(=O)[C@H](Cc1c[nH]c2ccccc12)NC(=O)[C@H](CCCCNC(=O)COCCOCCNC(=O)COCCOCCNC(=O)CC[C@H](NC(=O)CCCCCCCCCCCCCCCCC(=O)O)C(=O)O)NC(=O)[C@@H](NC(=O)[C@H](Cc1ccccc1)NC(=O)[C@H](CC(=O)O)NC(=O)[C@H](CCC(N)=O)NC(=O)[C@H](C)NC(=O)[C@H](C)NC(=O)[C@H](CCC(N)=O)NC(=O)[C@H](CO)NC(=O)[C@H](CC(=O)O)NC(=O)[C@H](CC(C)C)NC(=O)[C@](C)(Cc1ccccc1)NC(=O)[C@H](CCCCN)NC(=O)[C@H](CO)NC(=O)[C@@H](NC(=O)[C@H](CC(=O)O)NC(=O)[C@H](CO)NC(=O)[C@@H](NC(=O)[C@](C)(Cc1ccccc1)NC(=O)[C@H](CO)NC(=O)CNC(=O)[C@H](Cc1c[nH]cn1)NC(=O)C(C)(C)NC(=O)[C@@H](N)Cc1c[nH]cn1)[C@@H](C)O)C(C)C)C(C)C)C(=O)N[C@@H](C)C(=O)N[C@@H](CC(N)=O)C(=O)N[C@H](C(=O)NCC(=O)NCC(N)=O)[C@@H](C)O [Peptide 350] (H-H[Aib]HGS[αMeF]TSDVSK[αMeF]LDSQAAQDFVK([AEEA-AEEA-γGlu-C18 diacid])WIANTGG-NH2; N-terminus assumed) | 384 | 8.6 | 88.6
2 | CC[C@H](C)[C@H](NC(=O)[C@H](Cc1c[nH]c2ccccc12)NC(=O)[C@H](CCCCNC(=O)CC[C@H](NC(=O)CCCCCCCCCCCCCCCCC(=O)O)C(=O)O)NC(=O)[C@@H](NC(=O)[C@H](Cc1ccccc1)NC(=O)[C@H](CC(=O)O)NC(=O)[C@H](CCC(N)=O)NC(=O)[C@H](C)NC(=O)[C@H](C)NC(=O)[C@H](CCC(N)=O)NC(=O)[C@H](CO)NC(=O)[C@H](CC(=O)O)NC(=O)[C@H](CC(C)C)NC(=O)[C@](C)(Cc1ccccc1)NC(=O)[C@H](CCCCN)NC(=O)[C@H](CO)NC(=O)[C@@H](NC(=O)[C@H](CC(=O)O)NC(=O)[C@H](CO)NC(=O)[C@@H](NC(=O)[C@](C)(Cc1ccccc1)NC(=O)[C@H](CO)NC(=O)CNC(=O)[C@H](Cc1c[nH]cn1)NC(=O)C(C)(C)NC(=O)[C@@H](N)Cc1c[nH]cn1)[C@@H](C)O)C(C)C)C(C)C)C(=O)N[C@@H](C)C(=O)N[C@@H](CC(N)=O)C(=O)N[C@H](C(N)=O)[C@@H](C)O [Peptide 351] (H-H[Aib]HGS[αMeF]TSDVSK[αMeF]LDSQAAQDFVK([γGlu-C18 diacid])WIANT-NH2) | 216 | 0.7 | 605
3 | CC[C@H](C)[C@H](NC(=O)[C@H](Cc1c[nH]c2ccccc12)NC(=O)[C@H](CCCCNC(=O)CCOCCOCCNC(=O)CCOCCOCCNC(=O)CC[C@H](NC(=O)CC[C@H](NC(=O)CCCCCCCCCCCCCCCCC(=O)O)C(=O)O)C(=O)O)NC(=O)[C@@H](NC(=O)[C@H](Cc1ccccc1)NC(=O)[C@H](CC(=O)O)NC(=O)[C@H](CCC(N)=O)NC(=O)[C@H](C)NC(=O)[C@H](C)NC(=O)[C@H](CCC(N)=O)NC(=O)[C@H](CO)NC(=O)[C@H](CC(=O)O)NC(=O)[C@H](CC(C)C)NC(=O)[C@](C)(Cc1ccccc1)NC(=O)[C@H](CCCCN)NC(=O)[C@H](CO)NC(=O)[C@@H](NC(=O)[C@H](CC(=O)O)NC(=O)[C@H](CO)NC(=O)[C@@H](NC(=O)[C@](C)(Cc1ccccc1)NC(=O)[C@H](CO)NC(=O)CNC(=O)[C@H](Cc1c[nH]cn1)NC(=O)C(C)(C)NC(=O)[C@@H](N)Cc1c[nH]cn1)[C@@H](C)O)C(C)C)C(C)C)C(=O)N[C@@H](C)C(=O)N[C@@H](CC(N)=O)C(=O)N[C@H](C(N)=O)[C@@H](C)O [Peptide 352] (H-H[Aib]HGS[αMeF]TSDVSK[αMeF]LDSQAAQDFVK([PEG2-PEG2-γGlu-γGlu-C18 diacid])WIANT-NH2; N-terminus assumed) | 139 | 1.4 | 193
4 | CC[C@H](C)[C@H](NC(=O)[C@H](Cc1c[nH]c2ccccc12)NC(=O)[C@H](CCCCNC(=O)CC[C@H](NC(=O)CC[C@H](NC(=O)CCOCCOCCNC(=O)CC[C@H](NC(=O)CC[C@H](NC(=O)CCCCCCCCCCCCCCCCC(=O)O)C(=O)O)C(=O)O)C(=O)O)C(=O)O)NC(=O)[C@@H](NC(=O)[C@H](Cc1ccccc1)NC(=O)[C@H](CC(=O)O)NC(=O)[C@H](CCC(N)=O)NC(=O)[C@H](C)NC(=O)[C@H](C)NC(=O)[C@H](CCC(N)=O)NC(=O)[C@H](CO)NC(=O)[C@H](CC(=O)O)NC(=O)[C@H](CC(C)C)NC(=O)[C@](C)(Cc1ccccc1)NC(=O)[C@H](CCCCN)NC(=O)[C@H](CO)NC(=O)[C@@H](NC(=O)[C@H](CC(=O)O)NC(=O)[C@H](CO)NC(=O)[C@@H](NC(=O)[C@](C)(Cc1ccccc1)NC(=O)[C@H](CO)NC(=O)CNC(=O)[C@H](Cc1c[nH]cn1)NC(=O)C(C)(C)NC(=O)[C@@H](N)Cc1c[nH]cn1)[C@@H](C)O)C(C)C)C(C)C)C(=O)N[C@@H](C)C(=O)N[C@@H](CC(N)=O)C(=O)N[C@H](C(N)=O)[C@@H](C)O [Peptide 353] (H-H[Aib]HGS[αMeF]TSDVSK[αMeF]LDSQAAQDFVK([γGlu-γGlu-PEG2-γGlu-γGlu-C18 diacid])WIANT-NH2; N-terminus assumed) | 163 | 1.0 | 311
5 | CC[C@H](C)[C@H](NC(=O)[C@H](Cc1c[nH]c2ccccc12)NC(=O)[C@H](CCCCNC(=O)CC[C@H](NC(=O)CCCCCCCCCCCCCCCCCCC(=O)O)C(=O)O)NC(=O)[C@@H](NC(=O)[C@H](Cc1ccccc1)NC(=O)[C@H](CC(=O)O)NC(=O)[C@H](CCC(N)=O)NC(=O)[C@H](C)NC(=O)[C@H](C)NC(=O)[C@H](CCC(N)=O)NC(=O)[C@H](CO)NC(=O)[C@H](CC(=O)O)NC(=O)[C@H](CC(C)C)NC(=O)[C@](C)(Cc1ccccc1)NC(=O)[C@H](CCCCN)NC(=O)[C@H](CO)NC(=O)[C@@H](NC(=O)[C@H](CC(=O)O)NC(=O)[C@H](CO)NC(=O)[C@@H](NC(=O)[C@](C)(Cc1ccccc1)NC(=O)[C@H](CO)NC(=O)CNC(=O)[C@H](Cc1c[nH]cn1)NC(=O)C(C)(C)NC(=O)[C@@H](N)Cc1c[nH]cn1)[C@@H](C)O)C(C)C)C(C)C)C(=O)N[C@@H](C)C(=O)N[C@@H](CC(N)=O)C(=O)N[C@H](C(N)=O)[C@@H](C)O [Peptide 354] | 902 | 1.6 | 1110
6 | CC[C@H](C)[C@H](NC(=O)[C@H](Cc1c[nH]c2ccccc12)NC(=O)[C@H](CCCCNC(=O)CCOCCOCCNC(=O)CCOCCOCCNC(=O)CC[C@H](NC(=O)CC[C@H](NC(=O)CCCCCCCCCCCCCCCCCCC(=O)O)C(=O)O)C(=O)O)NC(=O)[C@@H](NC(=O)[C@H](Cc1ccccc1)NC(=O)[C@H](CC(=O)O)NC(=O)[C@H](CCC(N)=O)NC(=O)[C@H](C)NC(=O)[C@H](C)NC(=O)[C@H](CCC(N)=O)NC(=O)[C@H](CO)NC(=O)[C@H](CC(=O)O)NC(=O)[C@H](CC(C)C)NC(=O)[C@](C)(Cc1ccccc1)NC(=O)[C@H](CCCCN)NC(=O)[C@H](CO)NC(=O)[C@@H](NC(=O)[C@H](CC(=O)O)NC(=O)[C@H](CO)NC(=O)[C@@H](NC(=O)[C@](C)(Cc1ccccc1)NC(=O)[C@H](CO)NC(=O)CNC(=O)[C@H](Cc1c[nH]cn1)NC(=O)C(C)(C)NC(=O)[C@@H](N)Cc1c[nH]cn1)[C@@H](C)O)C(C)C)C(C)C)C(=O)N[C@@H](C)C(=O)N[C@@H](CC(N)=O)C(=O)N[C@H](C(N)=O)[C@@H](C)O [Peptide 355] (H-H[Aib]HGS[αMeF]TSDVSK[αMeF]LDSQAAQDFVK([PEG2-PEG2-γGlu-γGlu-C20 diacid])WIANT-NH2; N-terminus assumed) | 478 | 2.2 | 424
7 | CC[C@H](C)[C@H](NC(=O)[C@H](Cc1c[nH]c2ccccc12)NC(=O)[C@H](CCCCNC(=O)COCCOCCNC(=O)COCCOCCNC(=O)CC[C@H](NC(=O)CCCCCCCCCCCCCCCCCCC(=O)O)C(=O)O)NC(=O)[C@@H](NC(=O)[C@H](Cc1ccccc1)NC(=O)[C@H](CC(=O)O)NC(=O)[C@H](CCC(N)=O)NC(=O)[C@H](C)NC(=O)[C@H](C)NC(=O)[C@H](CCC(N)=O)NC(=O)[C@H](CO)NC(=O)[C@H](CC(=O)O)NC(=O)[C@H](CC(C)C)NC(=O)[C@](C)(Cc1ccccc1)NC(=O)[C@H](CCCCN)NC(=O)[C@H](CO)NC(=O)[C@@H](NC(=O)[C@H](CC(=O)O)NC(=O)[C@H](CO)NC(=O)[C@@H](NC(=O)[C@](C)(Cc1ccccc1)NC(=O)[C@H](CO)NC(=O)CNC(=O)[C@H](Cc1c[nH]cn1)NC(=O)C(C)(C)NC(=O)[C@@H](N)Cc1c[nH]cn1)[C@@H](C)O)C(C)C)C(C)C)C(=O)N[C@@H](C)C(=O)N[C@@H](CC(N)=O)C(=O)N[C@H](C(N)=O)[C@@H](C)O [Peptide 356] (H-H[Aib]HGS[αMeF]TSDVSK[αMeF]LDSQAAQDFVK([AEEA-AEEA-γGlu-C20 diacid])WIANT-NH2; N-terminus assumed) | 316 | 2.1 | 304
8 | CC[C@H](C)[C@H](NC(=O)[C@H](Cc1c[nH]c2ccccc12)NC(=O)[C@H](CCCCNC(=O)COCCOCCNC(=O)COCCOCCNC(=O)CC[C@H](NC(=O)CCCCCCCCCCCCCCCCC(=O)O)C(=O)O)NC(=O)[C@@H](NC(=O)[C@H](Cc1ccccc1)NC(=O)[C@H](CC(=O)O)NC(=O)[C@H](CCC(N)=O)NC(=O)[C@H](C)NC(=O)[C@H](C)NC(=O)[C@H](CCC(N)=O)NC(=O)[C@H](CO)NC(=O)[C@H](CC(=O)O)NC(=O)[C@H](CC(C)C)NC(=O)[C@](C)(Cc1ccccc1)NC(=O)[C@H](CCCCN)NC(=O)[C@H](CO)NC(=O)[C@@H](NC(=O)[C@H](CC(=O)O)NC(=O)[C@H](CO)NC(=O)[C@@H](NC(=O)[C@](C)(Cc1ccccc1)NC(=O)[C@H](CO)NC(=O)CNC(=O)[C@@H](NC(=O)C(C)(C)NC(=O)[C@@H](N)Cc1c[nH]cn1)[C@@H](C)CC)[C@@H](C)O)C(C)C)C(C)C)C(=O)N[C@@H](C)C(=O)N[C@@H](CC(N)=O)C(=O)N[C@H](C(N)=O)[C@@H](C)O [Peptide 358] (H-H[Aib]IGS[αMeF]TSDVSK[αMeF]LDSQAAQDFVK([AEEA-AEEA-γGlu-C18 diacid])WIANT-NH2; N-terminus assumed) | 16000 |  | 74.9
